# Experimental data as given in patent US20150173847A1, “IMAGING MARKER AND UTILIZATION THEREOF” (priority 2012, published 2015).
# Several values for one entry are separate records, joined by “and”; a condition that tells them apart may be missing. Identical values can stand only once. Like-named read-outs stand apart in the source and are kept apart here.
# Tests used:
# [1] = T1 and T2 relaxivity measurement by spin echo MRI at varying concentrations; assay type: physicochemical
# [2] = Density of the aqueous solutions calculated from the weight of 2 mL in a tube; assay type: physicochemical
# [3] = as in the Examples
# [4] = at 20 to 25° C., cited from earlier work
# [5] = aqueous solution, spin echo, 22° C.
# [6] = aqueous solution that exhibited maximum MRI contrast
density of solution ([2]; no matter what concentration the solution may have),SMILES,r1 (T1 relaxivity) [1],Density [2] [g/mL],density of solution [2],"r1 (T1 relaxivity) [1, 5] [mM⁻¹ s⁻¹]","Density [2, 6] [g/mL]",water solubility [3] [mg/mL],"r1 (T1 relaxivity) ([1]; aqueous solution, spin echo, 22° C., listed as SPT) [mM⁻¹ s⁻¹]",maximum density of aqueous solution ([4]; listed as sodium polytungstate (SPT)),maximum density of aqueous solution [4] [g/mL]
–,"O=S(=O)([O-])[O-].[Cu+2] [Cu (CuSO4), Copper sulfate]",0.63 and 0.63 mM−1 · sec^−1,1.0,about 1 g/mL,–,–,–,–,–,–
about 1 g/mL,"CNC[C@H](O)[C@@H](O)[C@H](O)[C@H](O)CO.CNC[C@H](O)[C@@H](O)[C@H](O)[C@H](O)CO.O=C([O-])CN(CCN(CC(=O)[O-])CC(=O)O)CCN(CC(=O)[O-])CC(=O)O.[Gd+3] [Gd (Gd-DTPA), meglumine gadopentetate]",–,–,–,4.2,1.0,–,–,–,–
–,"O.[Na+].[Na+].[Na+].[Na+].[Na+].[Na+].[O]=[W](=[O])([O-])[O-].[O]=[W](=[O])([O-])[O-].[O]=[W](=[O])([O-])[O-].[O]=[W](=[O])=[O].[O]=[W](=[O])=[O].[O]=[W](=[O])=[O].[O]=[W](=[O])=[O].[O]=[W](=[O])=[O].[O]=[W](=[O])=[O].[O]=[W](=[O])=[O].[O]=[W](=[O])=[O].[O]=[W](=[O])=[O] [W (SPT), Sodium polytungstate]",–,–,–,0.00036,3.0,> 1000,0.00036,at most 3.08 g/mL,3.08
